Measurements reported in ChEMBL document CHEMBL3627712, “Synthesis and initial evaluation of quinoline-based inhibitors of the SH2-containing inositol 5'-phosphatase (SHIP)” (Bioorg Med Chem Lett, 2015).

Tests used:
[1] = molecular target: T1, Phosphatidylinositol 3,4,5-trisphosphate 5-phosphatase 1 (Homo sapiens) (UniProt Q92835); assay: Inhibition of recombinant human truncated SHIP1 using PI(3,4,5)P3diC8 at 500 uM after 30 mins by malachite green phosphatase release assay
T1 sequence (whole entry): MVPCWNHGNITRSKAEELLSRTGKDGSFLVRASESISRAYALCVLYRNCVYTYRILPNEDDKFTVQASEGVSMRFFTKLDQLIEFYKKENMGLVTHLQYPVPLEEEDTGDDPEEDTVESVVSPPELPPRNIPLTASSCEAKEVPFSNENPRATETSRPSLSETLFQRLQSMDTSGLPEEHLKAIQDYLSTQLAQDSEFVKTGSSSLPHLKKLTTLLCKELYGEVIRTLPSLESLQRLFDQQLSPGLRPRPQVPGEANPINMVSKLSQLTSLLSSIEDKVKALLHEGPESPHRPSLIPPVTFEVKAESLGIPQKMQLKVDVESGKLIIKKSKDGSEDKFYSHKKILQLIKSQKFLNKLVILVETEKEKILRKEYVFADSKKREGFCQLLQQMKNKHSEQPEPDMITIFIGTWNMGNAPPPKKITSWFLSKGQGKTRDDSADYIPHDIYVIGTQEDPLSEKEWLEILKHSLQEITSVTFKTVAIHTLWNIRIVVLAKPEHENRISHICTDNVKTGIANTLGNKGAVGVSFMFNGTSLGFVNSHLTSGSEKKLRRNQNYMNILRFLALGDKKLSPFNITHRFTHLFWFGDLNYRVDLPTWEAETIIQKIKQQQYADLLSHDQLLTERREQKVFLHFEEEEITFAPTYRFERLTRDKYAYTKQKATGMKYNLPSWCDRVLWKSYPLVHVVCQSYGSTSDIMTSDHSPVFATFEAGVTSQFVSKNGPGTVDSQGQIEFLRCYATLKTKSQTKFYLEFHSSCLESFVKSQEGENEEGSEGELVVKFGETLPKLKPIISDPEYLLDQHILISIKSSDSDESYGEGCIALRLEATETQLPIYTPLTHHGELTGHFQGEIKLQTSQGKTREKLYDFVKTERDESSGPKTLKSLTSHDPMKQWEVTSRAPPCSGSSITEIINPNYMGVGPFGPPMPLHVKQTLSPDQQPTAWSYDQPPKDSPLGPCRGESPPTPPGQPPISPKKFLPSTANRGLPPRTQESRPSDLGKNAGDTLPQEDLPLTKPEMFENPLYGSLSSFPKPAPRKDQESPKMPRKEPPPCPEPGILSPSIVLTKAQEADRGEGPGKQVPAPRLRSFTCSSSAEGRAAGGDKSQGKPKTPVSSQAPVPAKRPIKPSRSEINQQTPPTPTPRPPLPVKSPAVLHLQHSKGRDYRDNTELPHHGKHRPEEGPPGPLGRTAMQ

[2] = molecular target: T2, Phosphatidylinositol 3,4,5-trisphosphate 5-phosphatase 2 (Homo sapiens) (UniProt O15357); assay: Inhibition of recombinant human truncated SHIP2 using PI(3,4,5)P3diC8 at 500 uM after 30 mins by malachite green phosphatase release assay
T2 sequence (whole entry): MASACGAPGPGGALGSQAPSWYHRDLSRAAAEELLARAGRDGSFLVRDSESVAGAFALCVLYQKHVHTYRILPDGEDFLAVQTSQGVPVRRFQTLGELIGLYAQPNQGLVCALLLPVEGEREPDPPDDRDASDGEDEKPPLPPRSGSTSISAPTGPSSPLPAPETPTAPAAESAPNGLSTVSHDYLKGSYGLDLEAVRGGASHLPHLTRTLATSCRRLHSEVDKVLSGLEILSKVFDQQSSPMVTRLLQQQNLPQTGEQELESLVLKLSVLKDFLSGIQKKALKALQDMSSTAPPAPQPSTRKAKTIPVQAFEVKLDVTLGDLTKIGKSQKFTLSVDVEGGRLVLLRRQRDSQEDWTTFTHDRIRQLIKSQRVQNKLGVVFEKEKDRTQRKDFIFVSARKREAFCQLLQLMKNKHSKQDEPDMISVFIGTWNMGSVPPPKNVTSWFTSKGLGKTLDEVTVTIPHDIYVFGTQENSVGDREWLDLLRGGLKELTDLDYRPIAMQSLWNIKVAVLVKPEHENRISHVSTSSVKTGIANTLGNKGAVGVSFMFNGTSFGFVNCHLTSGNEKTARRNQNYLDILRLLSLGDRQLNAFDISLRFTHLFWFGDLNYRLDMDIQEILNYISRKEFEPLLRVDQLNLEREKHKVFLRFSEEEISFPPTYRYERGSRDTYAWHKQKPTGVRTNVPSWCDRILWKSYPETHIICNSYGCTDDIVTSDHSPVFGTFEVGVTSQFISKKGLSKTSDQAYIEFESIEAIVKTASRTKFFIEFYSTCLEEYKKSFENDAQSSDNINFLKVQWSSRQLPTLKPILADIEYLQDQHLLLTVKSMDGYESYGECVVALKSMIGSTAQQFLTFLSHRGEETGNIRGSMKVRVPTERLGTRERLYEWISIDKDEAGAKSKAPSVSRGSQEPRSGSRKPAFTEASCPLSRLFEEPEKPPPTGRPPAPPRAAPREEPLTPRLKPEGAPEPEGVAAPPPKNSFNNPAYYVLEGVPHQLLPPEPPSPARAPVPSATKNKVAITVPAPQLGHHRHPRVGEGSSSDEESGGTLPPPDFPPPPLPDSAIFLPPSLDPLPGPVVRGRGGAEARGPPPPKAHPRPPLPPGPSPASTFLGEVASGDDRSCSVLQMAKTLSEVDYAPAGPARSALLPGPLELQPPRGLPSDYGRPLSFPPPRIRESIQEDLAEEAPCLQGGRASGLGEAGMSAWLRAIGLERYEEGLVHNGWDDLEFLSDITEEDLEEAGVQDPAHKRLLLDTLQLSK

[3] = molecular target: T2, Phosphatidylinositol 3,4,5-trisphosphate 5-phosphatase 2 (Homo sapiens); assay: Inhibition of recombinant human truncated SHIP2 using PI(3,4,5)P3diC8 at 1 mM after 30 mins by malachite green phosphatase release assay
[4] = molecular target: T1, Phosphatidylinositol 3,4,5-trisphosphate 5-phosphatase 1 (Homo sapiens); assay: Inhibition of recombinant human truncated SHIP1 using PI(3,4,5)P3diC8 at 1 mM after 30 mins by malachite green phosphatase release assay

Molecule `OCc1cc(C23CC4CC(CC(C4)C2)C3)nc2c(Cl)cc(Cl)cc12` has an inhibition [1] of 0% and an inhibition [2] of 14%.

With `CN[C@@H](C)[C@H](O)c1ccccc1` the inhibition [3] was 0% and the inhibition [4] was 0%.

`C=C[C@H]1CN2CC[C@H]1C[C@H]2[C@H](O)c1ccnc2ccc(OC)cc12` showed an inhibition [3] of 8% and an inhibition [4] of 0%.

`OC(c1cc(-c2ccccc2)nc2c1ccc1ccccc12)C1CCCCN1` (centres undefined) gave an inhibition [3] of 17% and an inhibition [4] of 38%.

With `CN[C@@H](C)[C@@H](O)c1ccccc1` the inhibition [3] was 13% and the inhibition [4] was 2%.

`OC(c1cc(C(F)(F)F)nc2c(C(F)(F)F)cccc12)C1CCCCN1` (centres undefined) showed an inhibition [3] of 54% and an inhibition [4] of 54%.

`NCc1cc(-c2ccccc2)nc2c1ccc1ccccc12` showed an inhibition [3] of 66% and an inhibition [4] of 41%.

For `O=C(O)c1cc(C23CC4CC(CC(C4)C2)C3)nc2c(Cl)cc(Cl)cc12`, the inhibition [1] was 44% and the inhibition [2] was 0%.

In the case of `O=C(O)c1cc(-c2ccccc2)nc2c1ccc1ccccc12`, the inhibition [1] is reported as 7% and the inhibition [2] is reported as 0%.

Work on `OCc1cc(-c2ccccc2)nc2c1ccc1ccccc12` yielded an inhibition [1] of 2% and an inhibition [2] of 18%.

Work on `C=C[C@H]1CN2CC[C@H]1C[C@@H]2[C@@H](O)c1ccnc2ccc(OC)cc12` yielded an inhibition [3] of 5% and an inhibition [4] of 19%.

Molecule `OC(c1cc(C23CC4CC(CC(C4)C2)C3)nc2c(Cl)cc(Cl)cc12)C1CCCCN1` (centres undefined) has an inhibition [3] of 73% and an inhibition [4] of 38%.
